Data set [1] has as its target T1, Prostaglandin G/H synthase 1 (Mus musculus, UniProt P22437).
T1 sequence (P22437 whole entry): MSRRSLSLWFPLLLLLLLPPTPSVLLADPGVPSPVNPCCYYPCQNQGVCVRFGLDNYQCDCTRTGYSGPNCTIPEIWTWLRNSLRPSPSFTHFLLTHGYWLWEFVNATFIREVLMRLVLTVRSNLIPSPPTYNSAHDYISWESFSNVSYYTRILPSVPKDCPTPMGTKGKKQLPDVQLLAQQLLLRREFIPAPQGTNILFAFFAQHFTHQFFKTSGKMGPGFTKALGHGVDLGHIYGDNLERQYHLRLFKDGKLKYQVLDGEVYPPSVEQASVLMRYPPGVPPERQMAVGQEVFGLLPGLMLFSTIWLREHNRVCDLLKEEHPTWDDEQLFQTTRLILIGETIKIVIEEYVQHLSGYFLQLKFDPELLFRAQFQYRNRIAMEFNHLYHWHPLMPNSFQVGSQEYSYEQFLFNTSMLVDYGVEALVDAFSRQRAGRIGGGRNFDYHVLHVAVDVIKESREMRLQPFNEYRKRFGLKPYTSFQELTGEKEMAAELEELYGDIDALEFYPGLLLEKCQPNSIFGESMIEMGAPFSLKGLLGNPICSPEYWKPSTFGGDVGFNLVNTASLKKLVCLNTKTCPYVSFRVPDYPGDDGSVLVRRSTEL
Kind of data set: Inhibition of COX1 in C57BL/6 mouse peritoneal macrophages assessed as reduction in PGE2 formation pre-incubated for 2 hrs followed by arachidonic acid addition and measured after 10 mins by radio-immuno assay or enzyme-immunoassay.

The nature of data set [2]: Drug level in Sprague-Dawley rat blood treated with 4-(3-Chlorophenyl)-2,2-dimethyl-5-{4-(methylsulfinyl)phenyl}-3(2H)-furanone at 10 mg/kg dosed through oral gavage assessed as sulfoxide to sulfonyl bio-transformation by measuring compound level measured after 24 to 48 hrs by HPLC method. The following applies: in vivo. It counts as ADME, organism-based.
A short description of data set [3]: Drug metabolism in Sprague-Dawley rat blood assessed as sulfoxide to sulfonyl bio-transformation by measuring compound-62 level at 10 mg/kg dosed through oral gavage measured after 24 to 48 hrs by HPLC method. The class given is ADME, organism-based. As to conditions: in vivo.
In data set [4] the test system is Rattus norvegicus. Kind of data set: Anti-inflammatory activity in Sprague-Dawley rat assessed as inhibition of carrageenan-induced foot edema at 3 mg/kg dosed through oral gavage 1 hr before carrageenan challenge and measured 3 hrs after carrageenan challenge. It counts as functional. (In general: Carrageenan injected into the paw causes an acute inflammation.)

Data set [5] addresses T2, Prostaglandin G/H synthase 2 (Mus musculus, UniProt Q05769).
T2 sequence (Q05769 whole entry): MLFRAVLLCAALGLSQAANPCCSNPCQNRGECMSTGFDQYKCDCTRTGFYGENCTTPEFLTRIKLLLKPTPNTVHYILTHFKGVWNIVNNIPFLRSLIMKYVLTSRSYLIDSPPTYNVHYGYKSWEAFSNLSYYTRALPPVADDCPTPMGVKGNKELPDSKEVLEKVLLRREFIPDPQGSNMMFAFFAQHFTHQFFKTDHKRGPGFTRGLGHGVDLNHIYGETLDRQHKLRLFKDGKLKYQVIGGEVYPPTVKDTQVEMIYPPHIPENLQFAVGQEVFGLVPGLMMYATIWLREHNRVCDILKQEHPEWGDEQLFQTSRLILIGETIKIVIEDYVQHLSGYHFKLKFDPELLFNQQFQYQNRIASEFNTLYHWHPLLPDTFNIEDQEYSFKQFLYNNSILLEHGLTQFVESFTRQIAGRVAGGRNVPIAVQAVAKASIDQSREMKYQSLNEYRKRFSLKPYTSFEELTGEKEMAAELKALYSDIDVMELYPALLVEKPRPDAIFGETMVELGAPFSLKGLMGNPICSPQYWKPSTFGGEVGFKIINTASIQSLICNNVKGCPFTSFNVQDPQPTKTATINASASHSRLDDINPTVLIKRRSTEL
Kind of data set: Inhibition of COX2 in C57BL/6 mouse peritoneal macrophages assessed as reduction in PGE2 formation pre-incubated for 2 hrs before LPS stimulation for 16 hrs followed by arachidonic acid addition and measured after 10 mins in presence of 500 uM aspirin by radio-immuno assay or enzyme-immunoassay.

Data set [6] deals with Rattus norvegicus. Kind of data set: Anti-inflammatory activity in Sprague-Dawley rat model of […] Freund's adjuvant-induced arthritis assessed as inhibition of adjuvant-induced arthritis dosed through oral gavage daily once beginning on day 14 after adjuvant injection and continued till day 22 after adjuvant injection by displacement plethysmometry. The class given is functional.

In another data set the test system is Mus musculus. The data set is described as follows: Analgesic activity in ICR mouse assessed as reduction in number of abdominal constrictions dosed through oral gavage one hr before acetic acid challenge measured after 6 mins post acetic acid challenge by acetic acid-induced writhing test. It counts as functional. As to conditions: Abdomen, 0.1 h. In general terms: An intraperitoneal irritant provokes the stretching counted in writhing tests.

Consider `CC(C)c1ccc(C2=C(c3ccc(S(C)(=O)=O)cc3)OC3(CCCC3)C2=O)cc1`, for which, in data set [1], the IC50 (as a rule, the concentration that gives 50% inhibition) is 24.4 µM.

For `CC1(C)OC(c2ccc(S(C)(=O)=O)cc2)=C(c2cccc(Cl)c2)C1=O`, the Drug metabolism entry in data set [2] is “Metabolite_Detected”.

Consider `C[S+]([O-])c1ccc(C2=C(c3cccc(Cl)c3)C(=O)C(C)(C)O2)cc1` (stereo not drawn), for which the Drug metabolism result in data set [3] is on record as “Metabolite_Detected”.

As to `CC1(C)OC(c2ccc(S(N)(=O)=O)c(F)c2)=C(c2ccc(F)cc2F)C1=O`, the inhibition in vivo – broadly, how much of the control response was suppressed – at 3 mg/kg with Rattus norvegicus [4] was 32%.

Regarding `CC(=O)c1cccc(C2=C(c3ccc(S(N)(=O)=O)cc3)OC(C)(C)C2=O)c1`, the values for the IC50 in data set [1] and in data set [5] were 8.98 µM and 0.0337 µM, respectively.

Regarding `C[S+]([O-])c1ccc(C2=C(c3cccc(F)c3)C(=O)C(C)(C)O2)cc1` (stereo not drawn), in data set [1], the half-inhibitory concentration (IC50) is 29 µM.

For `CC1(C)OC(c2ccc(S(N)(=O)=O)cc2F)=C(c2ccc(F)cc2)C1=O`, the ED50 (as a rule, the dose that gives a 50% effect, or the effect in half of the subjects) with Rattus norvegicus [6] turned out to be 0.09 mg/kg.

Regarding `C[S+]([O-])c1ccc(C2=C(c3ccc(F)cc3)C(=O)C(C)(C)O2)cc1` (stereo not drawn), the IC50 is 87.1 µM in data set [1] and 8.71 µM in data set [5].

On to `CC1(C)OC(c2ccc(S(N)(=O)=O)cc2)=C(c2cccc(Cl)c2)C1=O`, for which, in the data set on Rattus norvegicus [6], the ED50 was determined as 0.03 mg/kg.

Turning to `CC1(C)OC(c2ccc(S(C)(=O)=O)cc2)=C(c2cccc(F)c2)C1=O`, the values for the ED50 with Rattus norvegicus [6] and in the data set on Mus musculus were 0.07 mg/kg and 8.3 mg/kg, respectively.

Regarding `CC1(C)OC(c2ccc(S(C)(=O)=O)cc2)=C(c2cc(F)cc(F)c2)C1=O`, the ED50 with Rattus norvegicus [6] turned out to be 0.03 mg/kg.

On to `CC1(C)OC(c2ccc(S(C)(=O)=O)cc2)=C(c2cccc(C(F)(F)F)c2)C1=O`, for which the ED50 in the data set with Rattus norvegicus [6] was 0.06 mg/kg.

Consider `COc1ccc2c(c1)c(CC(=O)O)c(C)n2C(=O)c1ccc(Cl)cc1` [INDOMETHACIN], for which the ED50 in the data set on Mus musculus stood at 7.4 mg/kg.

As for `CC1(C)OC(c2ccc(S(N)(=O)=O)cc2)=C(c2cccc(F)c2)C1=O` [POLMACOXIB], the ED50 with Rattus norvegicus [6] was determined as 0.02 mg/kg; in the data set with Mus musculus it was 12.3 mg/kg.

The values are drawn from ChEMBL document CHEMBL3882732, “4,5-diaryl-3(2H)-furanone derivatives as cyclooxygenase-2 inhibitors” (2002).
